Results published in US20120316210A1, “TOPICAL ANTIPARASITIC FORMULATIONS” (priority 2010, published 2012).
Like-named read-outs stand apart in the source and are kept apart here.

Tests used:
[1] = type: physicochemical
Method: (§1) […] is also a weak base due to the presence of the imidazole ring. […] An acid modifier (or mixtures thereof) was added to the formulation in a molar equivalent relative to the amount of demiditraz to adjust the pH below 7.5 and reduce or eliminate the nucleophilic reaction between fipronil and demiditraz. The acid modifier includes both weak and strong acids. The weak acids include sugar acids (glyceric, gluconic, ascorbic, tartaric, and the like), carboxylic acid derivatives (mono-, di-, and tri-chloro acetic acid, and mono-, di-, and tri-fluoro acetic acid, benzoic, and the like) and mono-, di-, and tri-carboxylic acids. Non-exclusive examples of monocarboxylic acids include formic, acetic, propionic, butyric, oleic, valeric, caproic, enanthic, caprylic, linoleic, chloroacetic, dichloroacetic, oxalic, benzoic, pelargonic, capric, lauric, myristic, palmitic, stearic, and arachidic acid. Non-exclusive examples of di-carboxylic acids include oxalic, malonic, succinic, fumaric, aldaric, tartaric, glutaric, adipic, maleic, malic, pimelic, suberic, azelaic, sebacic, phthalic, isophtalic, and terephthalic acid. Non-exclusive examples of tri-carboxylic acids include citric, isocitric, aconitic, propane-1,2,3-tricarboxylic, and trimesic acid.
The addition of the weak acid in the formulation lowered the apparent pH of the formulation to about 6.5 to 7.5, however, fipronil degraded initially by about 5-6% followed by slower degradation to about 10-15% during an accelerated (70°) kinetic study. Strong acids (pka≦2) were added to the formulation to both lower apparent pH to about 2.5 to about 3.5 and to protonate demiditraz to prevent it from potentially acting as a nucleophile against fipronil. Non-exclusive examples of strong acids include inorganic acids (e.g., HCl, HBr, HI, HF, nitric acid, phosphoric acid, boric acid, sulfuric acid, and the like). Other strong acids include sulfonic acid and sulfonic acid derivatives thereof. Non-exclusive examples of sulfonic acid derivatives include methane-, ethane-, p-toluenesulfonic (p-TSA), and dodecylbenzenesulfonic acid. The use of a strong acid, e.g., p-TSA, increased fipronil stability, however, degradation was still about 5% after 12 weeks at 50° C.
The initial instability of fipronil was reduced to about ≦1% during an accelerated (70° C.) 1-week stability study for DPGMME with a strong acid and for NMP with a strong or weak acid.

[2] = type: physicochemical; remark: listed apart in the source
Method: as §1

pKa of demiditraz = type: physicochemical; details: weak base
Method: as §1

pKa (pKa of demiditraz) | Compound | Fipronil initial degradation [1] | Fipronil slower degradation following the initial one [1] | Fipronil stability when formulated with demiditraz [1] | Fipronil degradation ([1]; 1 week) | Initial instability of fipronil ([1]; 1 week) [%] | Fipronil degradation ([1]; 12 weeks) | pH levels at which fipronil degrades rapidly [2]
– | N#Cc1nn(-c2c(Cl)cc(C(F)(F)F)cc2Cl)c(N)c1[S+]([O-])C(F)(F)F (centres unmarked) [fipronil] | 5-6% | 10-15% | unstable | 3-6% | ≤ 1 | about 5% | above 7.5
7.2 | Cc1cccc([C@H](C)c2ncc[nH]2)c1C [Demiditraz, demiditraz] | – | – | – | – | – | – | –
